Values of other authors in patent US8449914B2, “Controlled release carvedilol compositions” (Egalet Ltd., priority 2002, dated 2013).
Like-named read-outs stand apart in the source and are kept apart here. Each block holds one compound with its values, some of them ahead of it.

Columns and labels:
[1] = not given; remark: listed apart in the source
[2] = test system: alpha1-adrenoreceptor; conditions: IR formulation
[3] = test system: beta-adrenoreceptor; conditions: humans
[4] = test system: beta-adrenoreceptor; conditions: preclinical studies

- solubility (95% ethanol): sparingly soluble
- solubility (dimethylsulfoxide): freely soluble
- solubility (ethyl ether): slightly soluble
- solubility (gastric fluid (simulated, TS, pH1.1)): practically insoluble
- solubility (intestinal fluid (simulated, TS without pancreatin, pH 7.5)): practically insoluble
- solubility (isopropanol): sparingly soluble
- solubility (methanol): soluble
- solubility (methylene chloride): soluble
- solubility (water): practically insoluble
- steady-state volume of distribution ([1]; in vivo): approximately 115 L
- absorption in the large intestine, share of the total absorption ([1]; timed-release capsules, study by Nolte et al): approximately 10%
- time after administration at which alpha-mediated vasodilatory effects are evident [2]: ≤ 30 min
- time after administration at which beta-blocking actions are evident [3]: one
Compound: COc1ccccc1OCCNCC(O)COc1cccc2[nH]c3ccccc3c12 (racemic) [Carvedilol]

- potency for beta-blockade relative to carvedilol [4]: approximately 13 times
Compound: COc1cc(O)ccc1OCCNCC(O)COc1cccc2[nH]c3ccccc3c12 (centres unmarked) [4′-hydroxyphenyl metabolite, 4′-hydroxy carvedilol]

- mean apparent terminal elimination half-lives ([1]; in vivo): 5 to 9 h
- plasma concentrations in poor metabolizers of debrisoquin compared to extensive metabolizers ([1]; in vivo): 2-3 fold
Compound: COc1ccccc1OCCNC[C@@H](O)COc1cccc2[nH]c3ccccc3c12 [R(+)-carvedilol]

- mean apparent terminal elimination half-lives ([1]; in vivo): 7 to 11 h
Compound: COc1ccccc1OCCNC[C@H](O)COc1cccc2[nH]c3ccccc3c12 [S(−)-carvedilol]
